molecular target: T1, BTK (Homo sapiens, UniProt Q06187); experiment: BTK degradation assay using the HiBiT Method (Nano-Glo HiBiT Lytic Assay, GM01501.3 cells); type: cell-based; conditions: HiBiT Degradation on GM01501.3 BTK @ 6 hours
T1 construct: The GM01501.3 cell line endogenously expresses BTK with a HiBiT fusion tag via CRISPR knock-in at its C-terminal region; endogenous in cells; host or cells: GM01501.3 (GM01501 cells engineered by CRISPR knock-in of HiBiT at the BTK locus)
How it was run: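 CRISPR knock-in GM01501.3 cells expressing endogenous BTK with C-terminal HiBiT tag, treated 6 h at 37 °C with compounds, 11-point half-log titration from 10 μM top, duplicates. Remaining BTK quantified by Nano-Glo HiBiT lytic luminescence versus DMSO controls; DC50 reported.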

T1 sequence (Q06187 whole entry, the tested form may be a part): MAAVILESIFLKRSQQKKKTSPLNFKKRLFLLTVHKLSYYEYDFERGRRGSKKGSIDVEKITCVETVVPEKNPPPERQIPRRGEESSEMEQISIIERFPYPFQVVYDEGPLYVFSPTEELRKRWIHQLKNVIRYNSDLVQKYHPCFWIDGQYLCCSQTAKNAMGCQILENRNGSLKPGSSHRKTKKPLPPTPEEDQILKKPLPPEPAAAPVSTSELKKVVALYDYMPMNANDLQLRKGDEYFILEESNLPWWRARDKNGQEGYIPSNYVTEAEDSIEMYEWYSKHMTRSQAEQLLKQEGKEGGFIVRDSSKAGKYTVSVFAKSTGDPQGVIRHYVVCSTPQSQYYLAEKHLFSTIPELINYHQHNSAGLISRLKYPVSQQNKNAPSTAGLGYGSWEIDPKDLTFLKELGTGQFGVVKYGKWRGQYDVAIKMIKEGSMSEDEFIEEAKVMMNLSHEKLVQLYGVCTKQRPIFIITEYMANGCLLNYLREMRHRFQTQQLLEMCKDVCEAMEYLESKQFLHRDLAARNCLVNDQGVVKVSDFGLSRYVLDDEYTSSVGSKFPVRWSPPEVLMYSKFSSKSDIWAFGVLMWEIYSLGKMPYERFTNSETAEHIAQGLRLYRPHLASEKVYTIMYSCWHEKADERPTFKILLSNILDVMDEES

SMILES	DC50
Cc1cc(-c2ncnn3cc(-c4ccc(CN5CCC(c6ccc(NC7CCC(=O)NC7=O)cc6)CC5)cc4)cc23)ccc1CNC(=O)c1ccc(C(F)(F)F)cn1 (centres unmarked) [Example 88, N-[[4-[6-[4-[[4-[4-[(2,6-dioxo-3-piperidyl)amino]phenyl]-1-piperidyl]methyl]phenyl]pyrrolo[2,1-f][1,2,4]triazin-4-yl]-2-methyl-phenyl]methyl]-5-(trifluoromethyl)pyridine-2-carboxamide]	< 100 nM
Cc1cc(-c2ncnn3cc(CCN4CCC(c5ccc6c(N7CCC(=O)NC7=O)noc6c5)CC4)cc23)ccc1CNC(=O)c1noc(C(C)(C)C)n1 [Example 272, 5-(tert-butyl)-N-(4-(6-(2-(4-(3-(2,4-dioxotetrahydropyrimidin-1(2H)-yl)benzo[d]isoxazol-6-yl)piperidin-1-yl)ethyl)pyrrolo[2,1-f][1,2,4]triazin-4-yl)-2-methylbenzyl)-1,2,4-oxadiazole-3-carboxamide]	> 1000 nM
Cn1nc(N2CCC(=O)NC2=O)c2ccc(C3CCN(Cc4ccc(-c5cc6nccc(-c7ccc(CNC(=O)c8noc(C(C)(C)C)n8)c(F)c7)n6n5)cc4)CC3)cc21 [Example 164, 5-tert-butyl-N-[[4-[2-[4-[[4-[3-(2,4-dioxohexahydropyrimidin-1-yl)-1-methyl-indazol-6-yl]-1-piperidyl]methyl]phenyl]pyrazolo[1,5-a]pyrimidin-7-yl]-2-fluoro-phenyl]methyl]-1,2,4-oxadiazole-3-carboxamide]	< 100 nM
Cn1nc(N2CCC(=O)NC2=O)c2ccc(C3CCN(Cc4ccc(-c5cc6c(-c7ccc(CNC(=O)c8noc(C(C)(C)C)n8)c(F)c7)ncnn6c5)c(F)c4)CC3)cc21 [Example 242, 5-(tert-butyl)-N-(4-(6-(4-((4-(3-(2,4-dioxotetrahydropyrimidin-1(2H)-yl)-1-methyl-1H-indazol-6-yl)piperidin-1-yl)methyl)-2-fluorophenyl)pyrrolo[2,1-f][1,2,4]triazin-4-yl)-2-fluorobenzyl)-1,2,4-oxadiazole-3-carboxamide]	< 100 nM
CC(C)(C)c1nc(C(=O)NCc2ccc(-c3ncnn4cc(-c5ccc(CN6CCCC(c7ccc(OC8CCC(=O)NC8=O)cc7)C6)cn5)cc34)cc2F)no1 (centres unmarked) [Example 236, 5-(tert-butyl)-N-(4-(6-(5-((3-(4-((2,6-dioxopiperidin-3-yl)oxy)phenyl)piperidin-1-yl)methyl)pyridin-2-yl)pyrrolo[2,1-f][1,2,4]triazin-4-yl)-2-fluorobenzyl)-1,2,4-oxadiazole-3-carboxamide]	< 100 nM
Cc1cc(-c2ncnn3cc(CCN4CCC(c5ccn6c(N7CCC(=O)NC7=O)cnc6c5)CC4)cc23)ccc1CNC(=O)c1noc(C(C)(C)C)n1 [Example 269, 5-(tert-butyl)-N-(4-(6-(2-(4-(3-(2,4-dioxotetrahydropyrimidin-1(2H)-yl)imidazo[1,2-a]pyridin-7-yl)piperidin-1-yl)ethyl)pyrrolo[2,1-f][1,2,4]triazin-4-yl)-2-methylbenzyl)-1,2,4-oxadiazole-3-carboxamide]	< 100 nM
Cc1cc(-c2ncnn3cc(CCCN4CCC(c5ccc(NC6CCC(=O)NC6=O)cc5)CC4)cc23)ccc1CNC(=O)c1noc(C(C)(C)C)n1 (centres unmarked) [Example 127, 5-tert-butyl-N-[[4-[6-[3-[4-[4-[(2,6-dioxo-3-piperidyl)amino]phenyl]-1-piperidyl]propyl]pyrrolo[2,1-f][1,2,4]triazin-4-yl]-2-methyl-phenyl]methyl]-1,2,4-oxadiazole-3-carboxamide]	< 100 nM
Cc1cc(-c2ccnc3nn(-c4ccc(CN5CCC(c6ccc(NC7CCC(=O)NC7=O)cc6)CC5)cc4)cc23)ccc1CNC(=O)c1noc(C(C)(C)C)n1 (centres unmarked) [Example 159, 5-tert-butyl-N-[[4-[2-[4-[[4-[4-[(2,6-dioxo-3-piperidyl)amino]phenyl]-1-piperidyl]methyl]phenyl]pyrazolo[3,4-b]pyridin-4-yl]-2-methyl-phenyl]methyl]-1,2,4-oxadiazole-3-carboxamide]	100 to 500 nM
Cc1cc(-c2ncnn3cc(-c4ccc(CN5CCC(c6ccc(NC7CCC(=O)NC7=O)cc6)CC5)cc4)cc23)ccc1CNC(=O)c1ncc(C(C)C)cn1 (centres unmarked) [Example 94, N-[[4-[6-[4-[[4-[4-[(2,6-dioxo-3-piperidyl)amino]phenyl]-1-piperidyl]methyl]phenyl]pyrrolo[2,1-f][1,2,4]triazin-4-yl]-2-methyl-phenyl]methyl]-5-isopropyl-pyrimidine-2-carboxamide]	< 100 nM
Cc1cc(-c2ncnn3cc(-c4ccc(CN5CCC(c6ccc(N[C@H]7CCC(=O)NC7=O)cc6F)CC5)cc4)cc23)ccc1CNC(=O)c1noc(C(C)(C)C)n1 [Example 25, (S)-5-(tert-butyl)-N-(4-(6-(4-((4-(4-((2,6-dioxopiperidin-3-yl)amino)-2-fluorophenyl)piperidin-1-yl)methyl)phenyl)pyrrolo[2,1-f][1,2,4]triazin-4-yl)-2-methylbenzyl)-1,2,4-oxadiazole-3-carboxamide]	< 100 nM
Cc1cc(-c2ncnn3cc(CN4CCN(CCCc5ccc(NC6CCC(=O)NC6=O)cc5)CC4)cc23)ccc1CNC(=O)c1noc(C(C)(C)C)n1 (centres unmarked) [Example 126, 5-tert-butyl-N-[[4-[6-[[4-[3-[4-[(2,6-dioxo-3-piperidyl)amino]phenyl]propyl]piperazin-1-yl]methyl]pyrrolo[2,1-f][1,2,4]triazin-4-yl]-2-methyl-phenyl]methyl]-1,2,4-oxadiazole-3-carboxamide]	100 to 500 nM
CC(C)(C)c1nc(C(=O)NCc2ccc(-c3ncnn4cc(-c5ccc(CN6CCc7ccc(OC8CCC(=O)NC8=O)cc7CC6)cn5)cc34)cc2F)no1 (centres unmarked) [Example 230, 5-(tert-butyl)-N-(4-(6-(5-((7-((2,6-dioxopiperidin-3-yl)oxy)-1,2,4,5-tetrahydro-3H-benzo[d]azepin-3-yl)methyl)pyridin-2-yl)pyrrolo [2,1-f][1,2,4]triazin-4-yl)-2-fluorobenzyl)-1,2,4-oxadiazole-3-carboxamide]	< 100 nM
Cc1cc(-c2ncnn3cc(C#CCCN4CCC(c5ccc(C6CCC(=O)NC6=O)cc5)CC4)cc23)ccc1CNC(=O)c1noc(C(C)(C)C)n1 (centres unmarked) [Example 291, 5-(tert-butyl)-N-(4-(6-(4-(4-(4-(2,6-dioxopiperidin-3-yl)phenyl)piperidin-1-yl)but-1-yn-1-yl)pyrrolo[2,1-f] [1,2,4]triazin-4-yl)-2-methylbenzyl)-1,2,4-oxadiazole-3-carboxamide]	100 to 500 nM
Cc1c(NC(=O)c2ccc(C(C)(C)O)cc2)cc(F)cc1-c1ncnn2cc(-c3ccc(CN4CCC(c5ccc(NC6CCC(=O)NC6=O)cc5)CC4)cc3)cc12 (centres unmarked) [Example 153, N-[3-[6-[4-[[4-[4-[(2,6-dioxo-3-piperidyl)amino]phenyl]-1-piperidyl]methyl]phenyl]pyrrolo[2,1-f][1,2,4]triazin-4-yl]-5-fluoro-2-methyl-phenyl]-4-(1-hydroxy-1-methyl-ethyl)benzamide]	< 100 nM
